Where two headings read alike, the source gives them in different places.
Tested on: L929 cells
Test: TNF High Throughput Screen (TNF-α driven apoptosis assay)
Type: cell-based, mouse
Details: human TNF-α + actinomycin D; for inhibition at 1 µM: compound at 1 μM, read-out: TNFα % Inh. @ 1 μM; for IC50: read-out: TNFα IC50
Description: Description of Table V: The results shown in Table V were obtained using the TNF-α assays performed as described in the protocols entitled “Method for TNF High Throughput Screen” and “Method for VCAM High Throughput Screen”, which are detailed below. These assays measure a cellular response to TNF-α stimulation, and the data published in the table are expressed as percentage inhibitions. Percentage inhibition is computed on a scale of 0 to 100% where 0 percent inhibition means the compound has no effect in the assay (the response is indistinguishable from TNF-α treatment alone), and 100% inhibition means that when the compound is present at the stated concentration, the response in the assay is the same as if TNF-α were not added. These two assays measure two different outcomes of TNF-α treatment, cell death and Vascular Cell Adhesion Molecule (VCAM) expression, and capture two of TNF-α's many biological effects. TNF-α induced apoptosis is a mechanism by which TNF-α production during immune/inflammatory responses can lead to direct cellular and tissue damage. TNF-α VCAM expression in endothelial cells is a response that allows leukocytes to leave the blood and enter a site of immune/inflammatory response. Both of these activities could lead to pathology in immune/inflammatory diseases. In the first column of the table, the percentage inhibition of the TNF-α driven apoptosis assay when the compounds are tested at 1 μM concentration is presented. The second column in the table lists the IC50 for the compound, a standard measure using a dilution series in the assay, and fitting a sigmoidal curve to the resulting dose-response curve. The IC50 is the concentration (derived analytically from the sigmoidal function) at which the compound would inhibit 50% of the response in the assay. The third and fourth column list the corresponding analysis for the TNF-α driven VCAM assay. In Table VI, data corresponding to the data in column 1 of Table V is shown, with human cells replacing the mouse cells used in the high throughput screen. […] As a consequence, the compounds will have use in treating more than one TNF-α mediated condition, and may be selected according to the manner in which the condition manifests. This corresponds to the use of these compounds in the treatment of human disease.
TNF High Throughput Screen.
• 1. Plate 4×10^4 L929 cells in 100 μl of complete EMEM in Costar 96 well plates in PM. • 2. The next day, pretreat with compound, inhibitor and control vehicle for 2 hours. • 3. After 2 hours pretreatment, add 10 μl 5 ng/ml human TNF-α and actinomycin D (40 μg/ml final concentration). • 4. Incubate overnight. • 5. In AM, remove supernatant. • 6. Wash on a plate washer (0.9% NaCl). • 7. Add 100 μl Crystal Violet 0.1% in 20% ETOH. • 8. Incubate at RT for 10 minutes. • 9. Wash on plate washer. • 10. Air dry wells at 37° C. • 11. Add 100 μl of methanol to each well. • 12. Shake plates on orbital shaker and read at 595 nm on plate reader. VCAM High Throughput Screen: Protocol: • 1. Plate Primary human umbilical vein endothelial cells at 1.8×10^4 cells/well in a 96-well tissue culture plate. • 2. Return Plates to 37° C. incubator for 48-72 hours before assay. • 3. On assay day, aspirate wells and add 1804, of endothelial growth cell medium (EGM) to each well. • 4. Add Compound to each well. • 5. Shake plates for 3 minutes. • 6. Incubate plate for 1 hour at 37° C. • 7. Add Tumor Necrosis Factor (TNF) at 1.0 ng/ml final concentration. • 8. Shake plates for 3 minutes. • 9. Incubate plate for 2 hours at 37° C. • 10. Remove plate from incubator and wash plate 3 times with phosphate buffered saline (PBS) using a plate washer. • 11. Add anti-VCAM antibody at 0.5 μg/ml final concentration. • 12. Incubate at 4° C. overnight. • 13. Wash 3 times with PBS on plate washer. • 14. Add goat anti-mouse horseradish peroxidase conjugate. • 15. Incubate at room temperature for one hour. • 16. Wash 3 times with PBS on plate washer. • 17. […]

Row | SMILES | inhibition at 1 µM (Mus musculus) [%] | IC50 (Mus musculus) [nM] | other results
1 | N#Cc1cccc(C(C(=O)NCC(c2ccccc2)c2ccccc2)N(CCc2c[nH]cn2)C(=O)c2cccc(F)c2)c1 (centres unmarked) [Compound 83] | 56 | – | –
2 | Cn1cnc(CCN(C(=O)c2ccccc2C(=O)c2ccccc2)C(C(=O)NCC(c2ccccc2)c2ccccc2)c2cccc(C#N)c2)c1 (centres unmarked) [Compound 13] | – | 1370 | –
3 | N#Cc1cccc(C(C(=O)NCC(c2ccccc2)c2ccccc2)N(CCc2c[nH]cn2)C(=O)c2c[nH]nc2N)c1 (centres unmarked) [Compound 81] | 50 | – | –
4 | O=C(c1ccccc1)c1ccccc1C(=O)N(CCc1c[nH]cn1)C(C(=O)NCC(c1ccccc1)c1ccccc1)C(c1ccccc1)c1ccccc1 (centres unmarked) [Compound 62] | 59 | – | –
5 | Cc1nn(-c2nc(N)nc(-c3ccccn3)n2)c(C)c1CCCc1ccccc1 [Compound 144, 4-[3,5-Dimethyl-4-(3-phenyl-propyl)-pyrazol-1-yl]-6-pyridin-2-yl-[1,3,5]triazin-2-lyamine] | – | – | IC50: 15 nM
6 | O=C(c1ccccc1)c1ccccc1C(=O)N(CCc1c[nH]cn1)C(Cc1cccc(F)c1)C(=O)NCC(c1ccccc1)c1ccccc1 (centres unmarked) [Compound 37] | – | 2360 | –
7 | O=C(c1ccccc1)c1ccccc1C(=O)N(CCc1c[nH]cn1)C(C(=O)NCC(c1ccccc1)c1ccccc1)c1ccccc1 (centres unmarked) [Compound 5, 2-Benzoyl-N-[(2,2-diphenyl-ethylcarbamoyl)-phenyl-methyl]-N-[2-(1H-imidazol-4-yl)-ethyl]-benzamide] | – | 872 | –
8 | COc1ccc(CCNC(=O)C(c2cccc(C#N)c2)N(CCc2c[nH]cn2)C(=O)CCC2CCCC2)cc1 (centres unmarked) [Compound 72] | 57 | – | –
9 | N#Cc1cccc(C(C(=O)NCC(c2ccccc2)c2ccccc2)N(CCN2CCOCC2)C(=O)c2ccccc2C(=O)c2ccccc2)c1 (centres unmarked) [Compound 11] | – | 2890 | –
10 | O=C(c1ccccc1)c1ccccc1C(=O)N(CCc1c[nH]cn1)C(C(=O)NCC(c1ccccc1)c1ccccc1)c1cccc(Cl)c1 (centres unmarked) [Compound 16] | – | 1320 | –
11 | COc1ccc(CCNC(=O)C(c2cccc(C#N)c2)N(CCc2c[nH]cn2)C(=O)CCCc2c[nH]c3ccccc23)cc1 (centres unmarked) [Compound 76] | 56 | – | –
12 | N#Cc1ccc(C(C(=O)NCC(c2ccccc2)c2ccccc2)N(CCc2c[nH]cn2)C(=O)c2ccccc2C(=O)c2ccccc2)cc1 (centres unmarked) [Compound 51] | – | 3560 | –
13 | CN(C)CCN(C(=O)c1ccccc1C(=O)c1ccccc1)C(C(=O)NCC(c1ccccc1)c1ccccc1)c1cccc(C#N)c1 (centres unmarked) [Compound 9] | – | 496 | –
14 | CN(C)CCN(C(=O)c1ccccc1C(=O)c1ccccc1)C(Cc1ccccc1)C(=O)NCC(c1ccccc1)c1ccccc1 (centres unmarked) [Compound 41] | – | 6490 | –
15 | COc1ccc(CCNC(=O)C(c2cccc(C#N)c2)N(CCc2c[nH]cn2)C(=O)c2cccn2C)cc1 (centres unmarked) [Compound 71] | 57 | – | –
16 | Cc1nn(-c2nccc(-c3ccccn3)n2)c(C)c1Oc1ccc(C(C)C)cc1 [Compound 97, 2-[4-(4-Isopropyl-phenoxy)-3,5-dimethyl-pyrazol-1-yl]-4-pyridin-2-yl-pyrimidine] | – | 397 | –
17 | N#Cc1cccc(C(C(=O)NCC(c2ccccc2)c2ccccc2)N(CCc2c[nH]cn2)C(=O)CCCCc2ccccc2)c1 (centres unmarked) [Compound 60] | 50 | – | –
18 | CC1=NN(c2nccc(-c3ccccn3)n2)C(=O)C1Sc1ccc(Cl)cc1 (centres unmarked) [Compound 147, 4-(4-Chloro-phenylsulfanyl)-5-methyl-2-(4-pyridin-2-yl-pyrimidin-2-yl)-2,4-dihydro-pyrazol-3-one] | – | 734 | –
19 | COc1ccc(CCNC(=O)C(c2cccc(C#N)c2)N(CCc2c[nH]cn2)C(=O)Cc2c(C)[nH]c3ccccc23)cc1 (centres unmarked) [Compound 75] | 67 | – | –
20 | N#Cc1cccc(C(C(=O)NCC(c2ccccc2)c2ccccc2)N(CCc2c[nH]cn2)C(=O)C(O)Cc2c[nH]c3ccccc23)c1 (centres unmarked) [Compound 82] | 55 | – | –
21 | N#Cc1cccc(C(C(=O)NCC(c2ccccc2)c2ccccc2)N(CCc2c[nH]cn2)C(=O)c2ccccc2-c2cccs2)c1 (centres unmarked) [Compound 29] | – | 3720 | –

Row | SMILES | inhibition at 1 µM (Mus musculus) [%] | IC50 (Mus musculus) [nM] | other results
22 | CSc1ccc(C(C(=O)NCC(c2ccccc2)c2ccccc2)N(CCc2c[nH]cn2)C(=O)c2ccccc2C(=O)c2ccccc2)cc1 (centres unmarked) [Compound 12] | – | 5150 | –
23 | O=C(c1ccccc1)c1ccccc1C(=O)N(CCc1c[nH]cn1)C(C(=O)NCC(c1ccccc1)c1ccccc1)c1ccc(-c2ccccc2)o1 (centres unmarked) [Compound 52] | – | 3490 | –
24 | COc1ccc(CCNC(=O)C(c2cccc(C#N)c2)N(CCc2c[nH]cn2)C(=O)C(C)C)cc1 (centres unmarked) [Compound 92] | 52 | – | –
25 | N#Cc1cccc(C(C(=O)NCCC(c2ccccc2)c2ccccc2)N(CCc2c[nH]cn2)C(=O)CCC2CCCCC2)c1 (centres unmarked) [Compound 69] | 61 | – | –
26 | CN(C)CCCN(C(=O)c1ccccc1C(=O)c1ccccc1)C(C(=O)NC(C)(C)CC(C)(C)C)c1cccc(C#N)c1 (centres unmarked) [Compound 63] | 55 | – | –
27 | N#Cc1cccc(C(C(=O)NCC(c2ccccc2)c2ccccc2)N(CCc2c[nH]cn2)C(=O)c2ccccc2COc2ccccc2)c1 (centres unmarked) [Compound 53] | – | 7130 | –
28 | Cc1ccc(C(C(=O)NCC(c2ccccc2)c2ccccc2)N(CCc2c[nH]cn2)C(=O)c2ccccc2C(=O)c2ccccc2)cc1 (centres unmarked) [Compound 8] | – | 1620 | –
29 | COc1ccc(CCNC(=O)C(c2cccc(C#N)c2)N(CCc2c[nH]cn2)C(=O)Cc2c[nH]c3ccc(Br)cc23)cc1 (centres unmarked) [Compound 78] | 60 | – | –
30 | O=C(c1ccccc1)c1ccccc1C(=O)N(CCc1c[nH]cn1)C(Cc1ccc(Cl)cc1)C(=O)NCC(c1ccccc1)c1ccccc1 (centres unmarked) [Compound 32] | – | 2330 | –
31 | COc1cccc(C(=O)N(CCc2c[nH]cn2)C(C(=O)NCCC(c2ccccc2)c2ccccc2)c2cccc(C#N)c2)c1 (centres unmarked) [Compound 70] | 58 | – | –
32 | COc1ccc(C(=O)c2ccccc2C(=O)N(CCc2c[nH]cn2)C(C(=O)NCC(c2ccccc2)c2ccccc2)c2cccc(C#N)c2)cc1 (centres unmarked) [Compound 19] | – | 457 | –
33 | N#Cc1cccc(C(C(=O)NCC(c2ccccc2)c2ccccc2)N(CCc2c[nH]cn2)C(=O)Cc2c[nH]c3ccc(Br)cc23)c1 (centres unmarked) [Compound 85] | 52 | – | –
34 | O=C(c1ccccc1)c1ccccc1C(=O)N(CCc1c[nH]cn1)C(Cc1ccc(F)cc1)C(=O)NCC(c1ccccc1)c1ccccc1 (centres unmarked) [Compound 38] | – | 2790 | –
35 | Cc1nn(-c2nc(N)nc(-c3ccccn3)n2)c(C)c1Cc1ccccc1 [Compound 142, 4-(4-Benzyl-3,5-dimethyl-pyrazol-1-yl)-6-pyridin-2-yl-[1,3,5]triazin-2-ylamine] | – | 152 | –
36 | Cc1nn(-c2ncnc(-c3ccccn3)n2)c(C)c1Sc1ccc(Cl)cc1 [Compound 141, 2-[4-(4-Chloro-phenylsulfanyl)-3,5-dimethyl-pyrazol-1-yl]-4-pyridin-2-yl-[1,3,5]triazine] | – | 1.1 | –
37 | Cn1cncc1CCN(C(=O)c1ccccc1C(=O)c1ccccc1)C(C(=O)NCC(c1ccccc1)c1ccccc1)c1cccc(C#N)c1 (centres unmarked) [Compound 14] | – | 1790 | –
38 | O=C(c1ccc(Cl)cc1)c1ccccc1C(=O)N(CCCn1ccnc1)C(C(=O)NCC(c1ccccc1)c1ccccc1)c1ccccc1 (centres unmarked) [Compound 61] | 51 | – | –
39 | N#Cc1cccc(C(C(=O)NCC(c2ccccc2)c2ccccc2)N(CCc2c[nH]cn2)C(=O)c2ccccc2C(=O)c2ccccn2)c1 (centres unmarked) [Compound 15] | – | 386 | –
40 | N#Cc1cccc(C(C(=O)NCC(c2ccccc2)c2ccccc2)N(CCc2c[nH]cn2)C(=O)c2ccccc2C(=O)OCc2ccccc2)c1 (centres unmarked) [Compound 55] | – | 7640 | –
41 | N#Cc1cccc(C(C(=O)NCC(c2ccccc2)c2ccccc2)N(CCCc2c[nH]cn2)C(=O)c2ccccc2C(=O)c2ccccc2)c1 (centres unmarked) [Compound 24] | – | 1030 | –
